Some results are limits rather than exact numbers.

What is called melting point is the temperature of the solid-liquid transition. `CN(C)CC(O)c1c(-c2ccc3ccccc3c2)[nH]c2ccccc12` (stereo not drawn) registered a melting point of 172 to 174 °C. The value for `CCOC(=O)Cc1c(-c2ccccc2)[nH]c2ccccc12` was 61 to 62 °C; that for `Fc1ccc(-c2cc(C(F)(F)F)n[nH]2)c(F)c1` was 157 to 158 °C; that for `O=C(O)C1=Cc2cc(F)cc(Br)c2OC1C(F)(F)F` (stereo not drawn) was over 300 °C. For the compound `CCOCCn1cc2c(C3C(=O)Nc4ccc(Cl)cc43)nc(NCC(C)O)nc2n1` (stereo not drawn), the melting point was over 300 °C. The figure for `CC(C)N(CCN1C(=O)/C(=N/NC(N)=O)c2ccc(Cl)cc21)C(C)C` is 205 to 208 °C; for `CCOC(=O)c1cnc2ccc3nc(S(C)(=O)=O)sc3c2c1Cl` it is 170 to 179 °C.

For `CCOC(=O)c1ncn(C)c1N`, the melting point was 193 to 194 °C. In turn, `CC1=C(C(=O)Nc2cnc3c(C)cc(C)cc3c2-c2ccccc2Cl)Sc2ccccc2N1` came in with a melting point of 177 to 178 °C. The value for `CCCOc1ccc2c(c1)C(c1ccc(OC)cc1OCc1ccccc1)=C(C(=O)OC)[C@H]2c1ccc2c(c1)OCO2` was 114 to 117 °C; that for `Cc1cccc(C(=O)c2[nH]c3cc(Cl)ccc3c2N)n1` was 210 to 211 °C. The value for `COc1cc2c(cc1OC)=C(CCCl)OCC(C)(C)C=2` was 66 to 67 °C. The value for `Cn1cc(C2=C(c3cn(CCCSc4ncccn4)c4ccccc34)C(=O)NC2=O)c2ccccc21` was 125 to 127 °C. Turning to `CC(=O)NC(C)(C)c1ccc(C(C)O)cc1` (stereo not drawn), the melting point lay within 146 to 149 °C. The figure for `CCN1CN(C2CC(O)C(CO)O2)C(=O)NC1=O` (stereo not drawn) is 162 °C. `COc1ccc(C(=O)c2cccc([N+](=O)[O-])c2)cc1` showed a melting point of 88 to 89 °C.

The compound `COc1ccc(Cn2cc(C(=O)NCCN(C)C)c3nc4c(C)cccc4cc3c2=O)cc1OC` gave a melting point of 213 to 214 °C. The figure for `NC(=O)CCN1C(=O)[C@@H](CC(=O)NCCc2ccc(Br)cc2)S[C@H]1c1ccc(C#Cc2ccccc2)s1` (relative stereo) is 224 to 227 °C; for `CC1CC(=O)N(c2cc(Cc3n[nH]c(=O)c4ccccc34)ccc2F)C1=O` (stereo not drawn) it is 171 to 172 °C; for `CCCCOC(=O)c1ccc(NC(=NC(=O)OCC)SC)cc1` it is 67 to 68 °C. The figure for `CN(C)CCCN1C(=O)c2cscc2N(C)c2ccccc21` is 52 to 56 °C. The value for `C#CCOc1cc(C(=O)O)cc(Cl)c1OCC#C` was 158 to 159 °C; that for `COC(=O)c1c(F)cc(O)cc1F` was 178 to 180 °C; that for `O=C1N[C@H](Cc2ccc(C(F)(F)F)c(F)c2)[C@H](c2ccc(F)cc2)O1` (racemic) was 122 to 123 °C. `NS(=O)(=O)c1cc2c(s1)S(=O)(=O)N(CCc1ccccc1)C[C@H]2O` came in with a melting point of 117 to 119 °C. Compound `CCCCNc1nc2cc(C)nn2c2ccncc12` yielded a melting point of 116 °C. The figure for `CC(C)(C)OC(=O)C=Cc1ccc(C[C@H](NC(=O)OC(C)(C)C)C(=O)OC(c2ccccc2)c2ccccc2)cc1` is 135 to 137 °C; for `CN1CCC(c2c[nH]c3ccc([N+](=O)[O-])cc23)CC1` it is 200 to 202 °C; for `CCn1c(C(F)(F)F)cc(=O)n(-c2cc(C(=O)OC3CCCC3)c(Cl)cc2F)c1=O` it is 90 to 91 °C. For the compound `CC1(C)OC(=O)C(C(=O)C2CC2)C(=O)O1`, the melting point lay in the range of 44 to 46 °C. The value for `O=C(O)CNC(=O)Nc1cccc(C(=O)OCc2ccccc2)c1` was 168 °C. The value for `COc1ccc(-c2cc(C(F)F)nn2-c2ccc(S(N)(=O)=O)cc2)cc1I` was 135 to 137 °C; that for `CC1(C)Oc2ccc(CN)cc2[C@@H](N2CCCC2=O)[C@@H]1O` (relative stereo) was 191 to 193 °C; that for `CCCCn1c(CCC)ccc1Cc1cccc(NC(N)=O)c1` was 85 to 89 °C. The value for `Cc1c(C(=O)Nc2ccc(N3CCC(O)CC3)c(C#N)c2)cnn1-c1ccc(Cl)cc1` was 247 °C; that for `Cc1cccc(C)c1C(=O)c1nc[nH]c1C` was 179 to 181 °C; that for `Nc1nc(-n2cc(C(=O)O)c(=O)c3cc(F)c(F)c(Cl)c32)ncc1F` was 242 to 246 °C. Regarding `OC1CSC(Oc2cccnc2-c2ccc(OC(F)(F)F)cc2)C(O)C1O` (stereo not drawn), the melting point lay within 114 to 119 °C. The figure for `Cn1c(=O)c(=O)[nH]c2ccccc21` is 277 to 286 °C; for `CC(C)COC(=O)CCC12CCC(=O)N1C(=O)CC2` it is 102 to 104 °C; for `Cc1nc(-c2c(F)cccc2F)n[nH]1` it is 195 to 198 °C. The value for `CCOC12N=C(c3cccnc3)SC1Cc1cc(Cl)ccc12` (stereo not drawn) was 89 to 90 °C; that for `CC(=O)c1ccc2nc3n(c2c1)CCC(=O)N3` was over 320 °C.

`CC(C)[C@@H]1NC(=O)OC1(c1ccccc1)c1ccccc1`: the melting point was 250 to 251 °C. The figure for `CC1(C)C=C(CCl)CS1(=O)=O` is 59 to 60 °C. The figure for `COc1ccc(C(=O)SC)c(O)c1` is 56 to 57 °C.

In turn, `COc1cc2c(cc1OC)CC(=O)N(CCCN(C)C[C@H]1Cc3cc(OC)c(OC)cc31)CC2` came in with a melting point of 98 to 100 °C. On to `CC(C)(C)OC(=O)N1CCC(C(=O)N2CCC(c3[nH]nc4c3C(=O)c3c(NC(=O)NN5CCOCC5)cccc3-4)CC2)CC1`, for which the melting point fell in the range of 220 to 222 °C. The figure for `CC(C)(NC(=O)Cc1cccc2ccccc12)C(O)c1ccccc1` (stereo not drawn) is 106 to 107 °C; for `Cc1sc2cc3ccccc3c(-c3ccc(OS(=O)(=O)c4ccc(C(=O)O)c(O)c4)c(C4CCCC4)c3)c2c1C` it is 230 to 237 °C. The value for `CC1=C(C)C(O)N(c2nc3ccc(OC(F)(F)F)cc3s2)C1=O` (stereo not drawn) was 228 to 231 °C; that for `CCOC(=O)c1nc2ccccn2c1-c1ccccc1` was 106 °C. The figure for `CCn1cc(-c2cnccn2)cc(Br)c1=O` is 129 to 132 °C. In turn, `O=c1c2cc(F)c(N3CCCC3)cc2n(CC2CC2)c(=O)n1OCc1ccccc1` came in with a melting point of 198 to 200 °C. The figure for `COc1ccc2c(c1)C(C)CCC2=O` (stereo not drawn) is 57.5 to 58.5 °C; for `O=CNc1ccc(C=O)cc1[N+](=O)[O-]` it is 183 to 191 °C. The compound `CCOC(=O)CNc1c(C(C)C)cc(C(O)(C(F)(F)F)C(F)(F)F)cc1C(C)C` came in with a melting point of 72 to 73 °C. The value for `COc1cccc(C(O)C2c3ccccc3Cc3ccccc32)c1` (stereo not drawn) was 106 °C; that for `C[C@@H](NS(=O)(=O)N1CCN(c2ccc(OCc3ccc4ccccc4c3)cc2)CC1)C(=O)O` was 167 to 171 °C.

`O=C(O)c1ccc(-c2ccc(-c3cc(-c4ccc(-c5ccc(C(=O)O)cc5)cc4)cc(-c4ccc(-c5ccc(C(=O)O)cc5)cc4)c3)cc2)cc1` came in with a melting point of 326 °C. The figure for `Cc1ccc(C(=O)NC(NC(=NC#N)Nc2cccc(F)c2)C(C)(C)C)cc1` (stereo not drawn) is 193 to 194 °C; for `CC(=O)OCCCc1cc2c(s1)-n1c(C)nnc1CN=C2c1ccccc1Cl` it is 153 to 155 °C. Compound `Nc1cccc(C(=O)NCc2ccccc2)c1` returned a melting point of 95 to 100 °C.

`CN(c1ccncc1)n1cccc1CO`: the melting point is 145 to 148 °C. The figure for `Cc1ccc(-c2c(N(C)C(=O)OC(C)(C)C)n(CC(C)C)c(=O)c3ccc(OCc4ccccc4)cc23)cc1` is 164 °C; for `CC(C)Oc1ccc(CCCOc2cc(CCC(=O)O)n(C(C)C)n2)c(Oc2ncc(C(F)(F)F)cc2Cl)c1` it is 128 °C.

For the compound `CC1(C)CC(N(c2nc(Cl)nc(N(C3CC(C)(C)N(O)C(C)(C)C3)C3CC(C)(C)N(O)C(C)(C)C3)n2)C2CC(C)(C)N(O)C(C)(C)C2)CC(C)(C)N1O`, the melting point fell in the range of 252 to 256 °C. The value for `CC(C)(CNC(=O)Cc1ccccc1)NCC(O)c1cc(Cl)c(NC(=O)C(C)(C)C)c(Cl)c1` (stereo not drawn) was 83 to 85 °C; that for `COC(=O)[C@H](CCSC)NC(=O)c1ccc(/C=C(/Cn2ccnc2)c2nccs2)cc1-c1ccccc1` was 122 to 124 °C; that for `Cc1cc(O)c(S(=O)(=O)Cc2ccc(F)cc2)c(=O)o1` was 180 to 182 °C. The figure for `Nc1ccc(NNC=O)cc1` is 122 to 125 °C; for `CC(C)(C(=O)O)c1cn2nc(CCCN3CCC(OC(c4ccccc4)c4ccccc4)CC3)ccc2n1` it is 195 to 205 °C; for `COc1ccc(COc2ccc3c(c2)OC(C)(C)C3c2ccc(C(C)C)cc2)cc1` (stereo not drawn) it is 86 to 88 °C. The value for `CCN1C(=O)C(=CC=C2C=C3N(C)c4ccccc4N3CC2)SC1=S` was 275 °C.

On to `CC(C)(C(N)=O)c1ccc(Cl)cc1`, for which the melting point was determined as 125 °C.

`CCCCCCCCCCCCc1ccccc1C(Sc1nc(C)c(C(=O)O)s1)C(=O)O` (stereo not drawn) showed a melting point of 88 to 91 °C. The value for `Cc1cncn1CC(O)c1ccccc1` (stereo not drawn) was 193 °C; that for `CC(=O)NC1CC(C)(C)N(OCc2cccc(C)c2)C(C)(C)C1` was 163 to 164 °C; that for `Cc1ccc2c3c(ccc2n1)OC[C@H](CNCC1CCc2sc4ccc(F)cc4c2C1)O3` (stereo partly drawn) was 115 to 118 °C. The figure for `O=C1CCCc2[nH]c3c(F)cccc3c21` is 222 to 224 °C; for `CCCc1c2nc(C(=O)OC)cc(Br)c2cc2c(=O)cc(C(=O)OCC)oc12` it is 177 to 178 °C; for `CC(C)C(NC(=O)OCc1ccncc1)C(=O)NC(Cc1ccccc1)C(O)C(Cc1ccccc1)NC(=O)C(NC(=O)OCc1ccncc1)C(C)C` (stereo not drawn) it is 158 to 159 °C. The value for `O=C(Cc1ccccc1)Nc1ccccc1` was 115 to 116 °C. Compound `O=C1OCCN1c1ccc(NCC(O)CO)c([N+](=O)[O-])c1` (stereo not drawn) displayed a melting point of 150 °C.

With `CC(C)Cn1c(CO)c(-c2ccc(Cl)cc2)c2cc(OCc3ccccc3)ccc2c1=O`, the melting point was in the range of 87 to 88 °C. The figure for `N=C(N)c1ccc(C(=O)N[C@@H](Cc2ccccc2)C(=O)c2ccc(OCC(=O)O)cc2)cc1` is over 200 °C.

`CC(=O)Oc1ccc(-c2nc3n(c2-c2ccc(OC(C)=O)cc2)CCS3)cc1` came in with a melting point of 172 to 173 °C.

`CCOc1ccc(-c2nc(-c3cccc(CO)n3)cs2)cc1OCC` had a melting point of 109 to 113 °C.

For the origin of these results see a melting point compilation (Tetko et al.; mined from patent text by program, amines drawn as free bases though some values may be those of a salt).
